According to patent publication US7906283B2, “Methods to identify patients at risk of developing adverse events during treatment with antidepressant medication” (The United States of America as represented by the …, priority 2006, dated 2011):

Test system: outpatients with major depressive disorder
Assay: STAR*D trial: treatment-emergent suicidal ideation (TESI) by QIDS-SR16 item 12 during citalopram treatment
Format: in vivo, human
Conditions: citalopram typically starting at 20 mg/day, up to 14 weeks; comparison group n=1742; 53 participants missing data excluded
From the text: DNA was collected from a clinically-representative cohort of 1938 outpatients with major depressive disorder enrolled in the Sequenced Treatment Alternatives to Relieve Depression (STAR*D) trial. Outpatients 18-75 years of age with a baseline 17-item Hamilton Depression Rating Scale (see Hamilton et al., J. Neurol. Neurosurg. Psychiatry, 23: 56-62 (1960); and Hamilton, Br. J. Soc. Clin. Psychol., 6(4): 278-296 (1967)) (HRSD17) score of ≧14 who met the Diagnostic and Statistical Manual of Mental Disorders (DSM)-IV criteria for non-psychotic major depressive disorder (MDD) were eligible for the trial. […]
The 16-item Quick Inventory of Depressive Symptomatology—Self-report (QIDS-SR16) was used as a measure of symptom severity (see Rush et al., Int. J. Methods Psychiatr. Res., 9: 45-59 (2000): Rush et al., Biol. Psychiatry, 54(5): 573-583 (2003); Trivedi et al., Psychol. Med., 34(1): 73-82 (2004); Rush et al., Neuropsychompharmacology, 30(2): 405-416 (2005); and Rush et al., Biol. Psychiatry, 59(6): 493-501 (2006)) and was obtained at baseline and at each bi-weekly clinic visit. […] Participants who scored “0” on this item before citalopram treatment, but who scored 1, 2, or 3 on the same item at least once while receiving citalopram were defined as TESI cases (n=120). […]

SMILES: CN(C)CCCC1(c2ccc(F)cc2)OCc2cc(C#N)ccc21 (stereo not shown) [citalopram]
- TESI cases (scored 0 on QIDS-SR16 item 12 before citalopram treatment, but 1, 2 or 3 at least once while receiving citalopram): 120 participants
